One data set can be described thus: Toxicity evaluation. Type of data set: in vivo, mouse. Here is the method:
ABD-AMP conjugates at different doses were intravenously administered to CD-1 mice. The mice were closely monitored for 24 h before euthanization unless significant morbidity was observed that necessitated early euthanization. Blood samples were drawn via cardiac puncture and dispensed into serum separator tubes (BD Microtainer). The samples were left to clot for at least 30 min and spun at 15 000 rcf for 1.5 min to separate serum. The serum samples were frozen in a −20 °C freezer and submitted for serum chemistry analysis by MIT Diagnostic Laboratory (MIT Division of Comparative Medicine). Serum levels of pro-inflammatory cytokine IL-6 and TNF-α were quantified using ELISA MAX standard sets (BioLegend, CA, U.S.A.) following the manufacturer’s protocol. Organs were harvested, fixed in 10% formalin at RT for 24 h, sectioned into 5 μm slices, and stained with H&E for analysis. The slides were evaluated by a veterinary pathologist blind to the treatment groups and were digitized using a Pannoramic digital slide scanner at 20× magnification.

A short description of a further data set: Pharmacokinetics study. It is filed as in vivo, mouse. The following applies: 15 nmol IV, CD-1 mice, blood, n = 4. On the procedure: ABD-AMP-Cy7 conjugates (15 nmol) were intravenously administered to CD-1 mice. At different time intervals, blood samples (5 μL) were collected via saphenous vein bleeding using heparin-coated capillary tubes. Blood samples were diluted 10-fold in PBS supplemented with Halt protease inhibitor cocktail and EDTA and centrifuged to remove cells. The supernatants were used to quantify conjugate concentration via SDS-PAGE analysis.

The conditions of data set [1]: mouse, in vivo, iv. On the procedure: All animal studies were approved by the Massachusetts Institute of Technology’s Committee on Animal Care (MIT protocol 0619-034-22). CD-1 mice (11–12 weeks old) were rendered neutropenic by intraperitoneal injections of cyclophosphamide at 4 d (150 mg/kg) and 1 d (100 mg/kg) prior to infection. PAO1 inoculation was performed by intratracheal instillation of PAO1 suspension (2 × 10^5 cfu in 50 μL PBS) via a 22G blunt-end catheter (EXCEL International). For BALF collection, the mice were first euthanized. An incision into the trachea was made with a needle puncture where lavage was performed with PBS (1 mL) via a catheter-fitted syringe. BALFs were centrifuged to remove cells, aliquoted, and stored in a −20 °C freezer.
ABD-AMP-Cy7 conjugates (15 nmol) were intravenously administered at 6 h post infection. The mice were euthanized 2 h after and organs were harvested for imaging with an Odyssey CLx imager. After imaging, organs were homogenized in PBS supplemented with Halt protease inhibitor cocktail (ThermoFisher Scientific, MA, U.S.A.) using a gentleMAC dissociator (Miltenyi Biotec, CA, U.S.A.). The homogenates were pelleted and the supernatants were used for SDS-PAGE analysis.

`CC[C@@H](C)[C@@H](NC(=O)CN)C(=O)NCC(=O)N[C@H](CCCCN)C(=O)N[C@H](Cc1ccccc1)C(=O)N[C@H](CC(C)C)C(=O)N[C@H](CCCCN)C(=O)N[C@H](CCCCN)C(=O)N[C@H](C)C(=O)N[C@H](CCCCN)C(=O)N[C@H](CCCCN)C(=O)N[C@H](Cc1ccccc1)C(=O)NCC(=O)N[C@H](CCCCN)C(=O)N[C@H](C)C(=O)N[C@H](Cc1ccccc1)C(=O)N[C@@H](C(=O)N[C@H](CCCCN)C(=O)N[C@@H](C(=O)N[C@H](CC(C)C)C(=O)N[C@H](CCCCN)C(=O)N[C@H](CCCCN)C(N)=O)[C@H](C)CC)C(C)C` [(D)Pex]: the “Signs of distress over the observation period” value in the data set “Toxicity evaluation” (10 mg/kg (AMP eq) IV, 24 h) is reported as “signs of distress”. Moreover, the “Histology evaluation of organs (H&E)” value in “Toxicity evaluation” (10 mg/kg (AMP eq) IV, 24 h, blinded veterinary pathologist, n = 3) is “Pathological damage was observed in kidneys and spleen”. For the same compound, the “Mice that did not survive to the study end point” value in the data set “Toxicity evaluation” (10 mg/kg IV, 24 h) is on record as 3 of 5. Moreover, the “Serum pro-inflammatory cytokine IL-6” value in “Toxicity evaluation” (10 mg/kg IV, ELISA) is given as “significantly elevated”. Moreover, in the data set “Toxicity evaluation” (IV, 5 and 10 mg/kg AMP eq, 24 h, (D)Pex result at 10 mg/kg, n = 3–5), the “Serum levels of ALT, AST, BUN and creatinine” value is reported as “elevated beyond a normal reference range”. For the same compound, in the data set “Toxicity evaluation” (IV, CD-1 mice, monitored 24 h), the “Maximum tolerated dose (MTD)” value turned out to be 5 mg/kg.
In general, AUC refers to concentration integrated over time. With “Azidoacetyl–GiGkflkkakkfGkafvkilkk–K(Cy7)–CONH2 [(D)Pex-Cy7, free unconjugated Cy7-labelled (D)Pex control]”, in “Pharmacokinetics study” (SDS-PAGE Cy7 quantification), the AUC turned out to be 2.08 µM·h. For the same compound, in the data set “Pharmacokinetics study”, the “t1/2,α” value was found to be 35.3 min and the “t1/2,β” value was 35.6 min. In addition, in data set [1], the “AUC ((D)Pex-Cy7), kidneys” value worked out at 14.1 % ID*h/g; the “AUC ((D)Pex-Cy7), liver” value was 112 % ID*h/g; the “AUC ((D)Pex-Cy7), lungs” value turned out to be 5.29 % ID*h/g; the “AUC ((D)Pex-Cy7), spleen” value is 23.5 % ID*h/g.
